According to US7371364B2, “Cyclic peptide and imaging compound compositions and uses for targeted imaging and therapy” (Board of Regents, The University of Texas System, priority 2003, dated 2008):
Positions of bridges follow the written chain, without caps; N, C: chain ends. No end group written: not given here.

Experiments:
KS1767 tumors = test: In vivo NIR imaging of subcutaneous KS1767 tumors with RGD imaging agent; parameters: species or system mice; conditions: subcutaneous KS1767 tumors, i.v. 6 nmol/mouse, image 24 hours after injection
Excerpt: Cy5.5-c(KRGDf; SEQ ID NO. 3) may be used in near infrared (NIR) imaging. Mice inoculated with KS1767 were used for in vivo NIR studies. The mice were four to six week-old athymic nude mice (18-22 g, Harlan Sprague Dawley, Inc. Indianapolis, Ind.) which were housed 5 per cage and fed with sterilized pellet chow (Harlan Sprague Dawley) and sterilized water. The animals were maintained in a pathogen-free mouse colony in the Department of Veterinary Medicine at the University of Texas M.D. Anderson Cancer Center. All experiments were performed in accordance with the guidelines of the Institutional Animal Care and Use Committee.
Tumor cells for use in the animals were harvested near confluence by incubation with 0.05% trypsin-EDTA. Cells were pelleted by centrifugation at 450×g for 5 minutes and resuspended in sterile PBS. […] cells/animal were implanted subcutaneously into the chest wall or hind legs of the mice. Imaging studies were performed when tumors reached 4-6 mm in average diameter.
In vivo fluorescence imaging was accomplished by illuminating the animal with light from a laser diode (35 mW) expanded to an approximate 8 cm diameter circular area. The fluorescent light re-emitted from the animal was collected by an image intensifier (model FS9910C, ITT Night Vision, Roanoke, Va.) lens-coupled to a CCD camera (model CH350, Photometrics, Tucson, Ariz.). The imaging was designed so that the field of view could be varied from 3×3 cm to over 12×12 cm by varying the image distance of the 50 mm lens used to focus the image onto the photocathode of the intensifier. The lens was fitted with a holographic notch-plus filter (660 nm center wavelength; Kaiser Optical Systems, Inc., Ann Arbor, Mich.) and a bandpass filter (710 nm center wavelength) to reject back-scattered and reflected excitation photons. Image acquisition was accomplished using V++ software (Digital Optics, Auckland, New Zealand) and the obtained images were stored in uncompressed tagged image file format (tiff). Data processing and analysis were accomplished using Matlab software (The MathWorks, Inc., Natick, Mass.). For all imaging sessions, the image acquisition parameters were kept constant, and each image required 800 ms of camera integration.
For dynamic in vivo fluorescence imaging, mice were anesthetized with an i.p. injection of 50 mg/kg pentobarbital, and a catheter was placed in the tail vein for i.v. injection of NIR dyes. A white-light image of the animal was obtained using a low-power lamp as a white light source with holographic and interference filters removed. Fluorescence images were then acquired as a function of time following administration of Cy5.5 (6 nmol per/mouse) or Cy5.5-c(KRGDf; SEQ ID NO. 3) (6 nmol per/mouse). […]

human tumor cells = test: In vitro tumor cell binding study (fluorescence microscopy); format: cell-based; conditions: SKBr-3, HT1080, MDA-MB-435, MDA-MB-468, U87 (PC-3 and U87 for the Tyr analogue); 37° C.
Method: All human tumor cell-lines were obtained from American Type Culture Collection (Rockville, Md.) and were maintained at 37° C. in a humidified atmosphere containing 5% CO2 in Dulbecco's Modified Eagle's Medium/Nutrient Mixture F-12 Ham (DMEM/F12) and 10% FBS (Gibco, Grand Island, N.Y.).
Cells were seeded on cover slips in 24-well plates (Becton Dickinson Labware, Franklin Lakes, N.J.) and incubated in DMEM/F12 culture medium (0.5 ml/well) overnight. Cy5.5 and Cy5.5-HWG polypeptide imaging agents were added into each well at the indicated concentrations. For the blocking study, doxycycline was added to the culture medium followed by the addition of Cy5.5-HWG polypeptide imaging agent 1 hour later. After an incubation period of 5-60 minutes at 37° C., cells were washed twice with PBS and incubated in a solution of Sytox Green in 95% ethyl alcohol (1 μM, Molecular Probe, Eugene, Oreg.) for 15 minutes to fix and stain cell nuclei. For staining of MMP expression, cells that were pretreated with Cy5.5-HWG polypeptide and stained with Sytox Green were incubated with anti-MMP antibody (Sigma) (1 mg/ml; 1:200 dilution) for 1 hour at room temperature. The cells were then washed and incubated with Texas Red conjugated go at anti-rabbit IgG (Molecular Probe, 4 μg/ml) at room temperature for 1 hour. Cells were washed again with PBS and the cover slips were mounted for microscopic examination using a DMR microscope (Leica Microsystems, Inc., Brannockburn, Ill.). The microscope was equipped with a 75W Xenon lamp, 775 nm/845 nm, 560 nm/645 nm, and 480 nm/535 nm (Excitation/emission) filters (Chroma Technology Corp., Brattleboro, Vt.), a Hamamatsu B/W Chilled CCD camera (Hamamatsu Photonics K.K., Hamamatsu City, Japan), and Image-Pro Plus 4.5.1 software (Media Cybernetics, Silver Spring, Md.). In the multiple staining images, Cy5.5, MMPs, and Sytox Green were pseudocolored red, green, and blue, respectively.

SKBr-3 tumors = test: In vivo NIR fluorescent imaging with HWG imaging agent; parameters: species or system mice; conditions: 4 days after i.v. injection, 15 nmol per mouse
Method: Four to six week-old athymic nude mice (18-22 g, Harlan Sprague Dawley, Inc., Indianapolis, Ind.) were housed 5 per cage with sterilized pet chow (Harlan Sprague Dawley) and sterilized water. Animals were maintained in a pathogen-free mouse colony in the Department of Veterinary Medicine at the University of Texas M.D. Anderson Cancer Center. All experiments were performed in accordance with the guidelines of the Institutional Animal Care and Use Committee. Tumor cells were harvested near confluence by incubation with 0.05% trypsin-EDTA. Cells were pelleted by centrifugation at 450×g for 5 minutes and resuspended in sterile PBS. Cells (2-3×10^6/animal) were implanted subcutaneously into the chest wall or the hind legs of the mice. Human PC-3 prostate tumors were obtained by intratibia injection of PC-3 cells into male nude mice. Human U87 glioma tumors were obtained by intracranial injection.
In vivo fluorescence imaging was accomplished by illuminating the animal with light from a laser diode (785 nm, 80 mW for IGC; 660 nm, 35 mW for Cy 5.5 dyes) expanded to an approximate 8 cm diameter circular area. The re-emitted fluorescent light was collected by an image intensifier (model FS9910C, ITT Night Vision, Roanoke, Va.) lens-coupled to a CCD camera (model CH350, Photometrics, Tucson, Ariz.). The imaging was designed so that the field of view could be varied from 3×3 cm to over 12×12 cm by varying the image distance of the 50 mm lens used to focus the image onto the photocathode of the intensifier. The lens was fitted with a holographic notch-plus filter (785 nm center wavelength for ICG and 660 nm center wavelength for Cy5.5 dyes; Kaiser Optical Systems, Inc., Ann Arbor, Mich.) and a bandpass filter (830 nm center wavelength for ICG, 710 nm center wavelength for Cy5.5 dyes) to reject back-scattered and reflected excitation photons. Image acquisition was accomplished using V++ software (Digital Optics, Auckland, New Zealand) and obtained images were stored in uncompressed tagged image file format (tiff). Data processing and analysis was accomplished using Matlab software (The Math Works, Inc., Natick, Mass.).

[1] = molecular target: T1, pre-activated MMP-2 (gelatinase A), Chemicon assay (UniProt P08253 110-660, limits assumed); test: cell-based or functional assay
T1 sequence (looked up): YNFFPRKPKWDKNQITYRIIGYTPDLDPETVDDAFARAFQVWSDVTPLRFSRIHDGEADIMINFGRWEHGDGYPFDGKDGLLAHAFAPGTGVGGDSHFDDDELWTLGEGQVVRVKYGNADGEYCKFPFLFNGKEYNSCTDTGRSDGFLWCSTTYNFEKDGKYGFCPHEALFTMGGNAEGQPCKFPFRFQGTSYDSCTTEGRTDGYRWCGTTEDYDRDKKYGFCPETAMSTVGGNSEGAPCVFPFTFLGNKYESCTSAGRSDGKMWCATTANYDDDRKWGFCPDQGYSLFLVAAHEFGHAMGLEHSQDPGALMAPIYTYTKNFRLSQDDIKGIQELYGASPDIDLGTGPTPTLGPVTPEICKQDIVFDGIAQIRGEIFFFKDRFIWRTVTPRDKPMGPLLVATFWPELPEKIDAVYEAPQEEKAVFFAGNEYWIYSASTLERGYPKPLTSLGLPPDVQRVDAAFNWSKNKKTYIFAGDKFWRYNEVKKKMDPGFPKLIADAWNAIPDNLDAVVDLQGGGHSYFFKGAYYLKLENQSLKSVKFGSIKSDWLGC

[2] = molecular target: T2, αvβ3 integrin (on KS1767 cells) (UniProt P06756 31-1048; P05106 27-788); test: control in the KS1767 cell adhesion assay on vitronectin-coated wells (FIG. 31)
T2 construct: whole, on cells; also called integrin αvβ3
T2 sequence (P06756 31-1048, chain 1 of 2): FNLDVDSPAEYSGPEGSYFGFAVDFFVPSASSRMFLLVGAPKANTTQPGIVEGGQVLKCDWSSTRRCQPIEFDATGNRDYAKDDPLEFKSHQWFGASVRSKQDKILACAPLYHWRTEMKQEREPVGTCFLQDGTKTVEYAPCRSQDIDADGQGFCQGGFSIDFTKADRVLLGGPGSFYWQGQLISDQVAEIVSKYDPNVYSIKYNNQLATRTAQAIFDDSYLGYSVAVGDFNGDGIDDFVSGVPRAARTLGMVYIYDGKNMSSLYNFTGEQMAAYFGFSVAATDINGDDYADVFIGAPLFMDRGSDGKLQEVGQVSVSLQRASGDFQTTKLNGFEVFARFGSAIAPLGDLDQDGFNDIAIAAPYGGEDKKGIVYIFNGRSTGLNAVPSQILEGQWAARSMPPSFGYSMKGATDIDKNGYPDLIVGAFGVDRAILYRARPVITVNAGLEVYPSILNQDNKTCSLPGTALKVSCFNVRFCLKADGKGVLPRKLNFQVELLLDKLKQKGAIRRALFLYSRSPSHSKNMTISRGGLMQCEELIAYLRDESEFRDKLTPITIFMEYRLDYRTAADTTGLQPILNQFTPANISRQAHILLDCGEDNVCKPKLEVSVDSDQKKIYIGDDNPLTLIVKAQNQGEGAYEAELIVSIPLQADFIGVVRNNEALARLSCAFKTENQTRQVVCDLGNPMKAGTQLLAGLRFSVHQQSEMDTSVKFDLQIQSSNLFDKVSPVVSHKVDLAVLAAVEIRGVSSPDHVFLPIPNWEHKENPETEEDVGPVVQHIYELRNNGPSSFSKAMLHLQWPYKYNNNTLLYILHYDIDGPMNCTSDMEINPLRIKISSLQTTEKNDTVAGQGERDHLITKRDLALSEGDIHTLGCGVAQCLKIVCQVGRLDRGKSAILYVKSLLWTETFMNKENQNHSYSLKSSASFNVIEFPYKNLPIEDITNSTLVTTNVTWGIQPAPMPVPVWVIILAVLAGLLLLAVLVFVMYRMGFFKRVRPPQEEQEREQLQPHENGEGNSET
T2 sequence (P05106 27-788, chain 2 of 2): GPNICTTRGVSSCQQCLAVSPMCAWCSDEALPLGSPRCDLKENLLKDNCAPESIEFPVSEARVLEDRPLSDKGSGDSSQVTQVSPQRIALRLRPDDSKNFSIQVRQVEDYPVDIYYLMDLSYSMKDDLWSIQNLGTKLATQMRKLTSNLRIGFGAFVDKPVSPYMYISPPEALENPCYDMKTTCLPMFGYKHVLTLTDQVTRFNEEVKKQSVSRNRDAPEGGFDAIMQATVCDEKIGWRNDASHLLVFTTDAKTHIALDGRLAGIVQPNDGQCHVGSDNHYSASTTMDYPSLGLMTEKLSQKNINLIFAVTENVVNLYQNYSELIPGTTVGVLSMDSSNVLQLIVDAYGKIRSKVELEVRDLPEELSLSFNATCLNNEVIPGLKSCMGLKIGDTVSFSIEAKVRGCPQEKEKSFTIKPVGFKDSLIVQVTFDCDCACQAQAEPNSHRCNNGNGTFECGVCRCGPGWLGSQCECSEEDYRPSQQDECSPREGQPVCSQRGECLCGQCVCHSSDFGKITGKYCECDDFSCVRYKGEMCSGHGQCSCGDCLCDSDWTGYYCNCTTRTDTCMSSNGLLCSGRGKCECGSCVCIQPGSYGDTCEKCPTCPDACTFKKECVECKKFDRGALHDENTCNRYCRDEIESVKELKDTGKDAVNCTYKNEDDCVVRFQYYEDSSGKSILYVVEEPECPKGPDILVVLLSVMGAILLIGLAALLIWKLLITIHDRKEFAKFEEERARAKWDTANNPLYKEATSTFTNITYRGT
Method: A Cell Adhesion Assay was additionally performed. KS1767 cells were seeded in DMEM/F12 culture medium supplemented with 10% fetal bovine serum for 24 hr. Cells (1×10^5) with different concentrations of c(KRGDf; SEQ ID NO. 3) or Cy5.5-c(KRGDf; SEQ ID NO. 3) were added to vitronectin-coated microliter wells under serum-free conditions and incubated at 37° C. for 1 hr. After washing steps, the bound cells were stained with 5% crystal violet, followed by addition of 0.1M HCl to each well. The concentrations of crystal violet were determined by UV/V is absorption at 627 nm. $IC50$ values were estimated from the dose-activity curves.

Cy5.5 [reference compound]
Tumor targeting / uptake in NIR image (KS1767 tumors): almost no optical activity uptake | Binding to tumor cells (human tumor cells): did not display significant binding | Fluorescent signal in tumor (SKBr-3 tumors): minimal fluorescence

B1: c(KAHWGFTLD)NH2 (SEQ ID NO. 10) (side chain-to-side chain linkage) (peptide)
peptide: KAHWGFTLD
HELM: PEPTIDE1{K.A.H.W.G.F.T.L.D.[am]}$PEPTIDE1,PEPTIDE1,1:R3-9:R3$$$V2.0; N-terminus assumed
SMILES: CC(C)C[C@@H]1NC(=O)[C@H]([C@@H](C)O)NC(=O)[C@H](Cc2ccccc2)NC(=O)CNC(=O)[C@H](Cc2c[nH]c3ccccc23)NC(=O)[C@H](Cc2c[nH]cn2)NC(=O)[C@H](C)NC(=O)[C@@H](N)CCCCNC(=O)C[C@@H](C(N)=O)NC1=O
IC50 of MMP-2 enzyme inhibition (biotinylated gelatinase substrate cleavage assay) [1]: 5.5 µM

Ac-ACNGRCG (bridge 2-6; also: kind of ring closure not given here, also called control cyclic pentapeptide) [Ac-A-c(CNGRC)-G]
binding result [2]: no binding
